# Assay results reported in patent US7049069B2, “Detecting and treating reproductive tract disorders” (University of Florida, priority 2001, dated 2006).
# Columns and labels:
# Format in all cases: cell-based, human
# [1] = test system: IL-13 expression in endometrial stromal cells; test: Effect of ovarian steroids on IL-13 expression in endometrial stromal cells (quantitative RT-PCR, ELISA); conditions: for IL-13 expression, mRNA and protein level (summary statement): endometrial stromal cells; for IL-13 expression compared to control cells: stromal cells, various time points (e.g. 4, 6, 24 and 36 h after steroid addition)
# Description: (§1) Cells. Uterine tissue was collected and endometrial stromal cells and their culture conditions were isolated as described previously. Tang et al., Endocrinology 135:450, 1994. The isolated glandular epithelial and stromal cells were grown as monolayers in DMEM-Ham's F-12 (1:1, v/v) supplemented with 10% fetal bovine serum (FBS). Their purity and homogeneity were determined immunocytochemically by the use of monoclonal antibodies to human desmin, smooth muscle α-actin, cytokeratin 19 and vimentin. Ovarian Steroids. To determine the effect of ovarian steroids regulate IL-13 and IL-15 expression in endometrial epithelial and stromal cells, cells were subcultured in 6-well dishes at an approximate density of at 10^6 cells/well, and incubated with phenol-free media containing 10% charcoal-stripped FBS for 48 hrs. The cells were made quiescent under a serum-free condition for 24 hrs, and then treated with E2 (17 β estradiol), MPA (medroxyprogesterone acetate) or E2+MPA either alone or in appropriate combinations, added to phenol-free medium containing 2% charcoal-stripped FBS (cFBS) (Hyclone, Logan, Utah). The level of IL-13 and IL-15 mRNA and protein was determined as described above after appropratie time intervals using quantitative RT-PCR and ELISA.
# [2] = test system: IL-13 expression in endometrial epithelial cells; test: Effect of ovarian steroids on IL-13 expression in endometrial epithelial cells (quantitative RT-PCR, ELISA); conditions: for IL-13 expression, mRNA and protein level (summary statement): endometrial epithelial cells; for IL-13 expression compared to control cells: epithelial cells
# Description: as §1
# [3] = test system: IL-15 expression in endometrial stromal cells; test: Effect of ovarian steroids on IL-15 expression in endometrial stromal cells (quantitative RT-PCR, ELISA); conditions: for IL-15 expression, mRNA and protein level (summary statement): endometrial stromal cells; for IL-15 expression: stromal cells, various time points
# Description: as §1
# [4] = test system: IL-15 expression in endometrial epithelial cells; test: Effect of ovarian steroids on IL-15 expression in endometrial epithelial cells (quantitative RT-PCR, ELISA); conditions: for IL-15 expression, mRNA and protein level (summary statement): endometrial epithelial cells; for IL-15 expression: epithelial cells, various time points
# Description: as §1
# [5] = test system: endometrial stromal cells; test: 3H-thymidine incorporation and cell proliferation (MTT) assay, stromal cells
# Description: (§2) Cells. Uterine tissue was collected and endometrial stromal cells and their culture conditions were isolated as described previously. Tang et al., Endocrinology 135:450, 1994. The isolated glandular epithelial and stromal cells were grown as monolayers in DMEM-Ham's F-12 (1:1, v/v) supplemented with 10% fetal bovine serum (FBS). Their purity and homogeneity were determined immunocytochemically by the use of monoclonal antibodies to human desmin, smooth muscle α-actin, cytokeratin 19 and vimentin.
# (§3) ^3H-Thymidine Incorporation and Cell Proliferation Assay. Endometrial epithelial and stromal cells were cultured either in 24- or 96-well dishes at approximate density of 2.5×10^5 and 2.5×10^4 cell/well, respectively, in the presence of 10% FBS for 48 h, they were then made quiescent in serum-free condition for 48 h as previously described. Tang et al., supra. The quiescent cells were incubated either in serum-free, or 2% FBS supplemented media, in the presence of appropriate concentrations of IL-13 and/or IL-15 and 2 μCi/ml ^3H-thymidine for 48 h. The rate of incorporated ^3H-thymidine determined as previously described. Tang et al., supra. Cell proliferation assays were preformed by seeding epithelial and stromal cells in 96-well microplates or 24 well dishes, respectively, as described above and cultured in the presence of appropriate concentrations of IL-13 and IL-15 in the presence or absence of 2% FBS. After 48 h the cells were washed and incubated with a dye solution composed of 3-(4,5-dimethylthiazol-2-yl)-2,5-diphenyltetrazolium bromide (MTT) for 4 h at 37° C., solubilized using Promega Cell-Titer assay, and the optical density was measured using Thermomax microplate reader (Molecular Devices) at 570 nm as previously described (Tang et al., supra).
# [6] = test system: endometrial epithelial cells; test: 3H-thymidine incorporation and cell proliferation (MTT) assay, epithelial cells
# Description: as §2, §3
# [7] = test system: TNFα receptor type I expression in stromal cells; test: Effect of IL-13 and IL-15 on TNFα receptor type I expression in stromal cells
# Description: as §2
# (§4) To determine whether IL-13 and IL-15 alter the expression of tumor necrosis factor alpha receptor, the stromal and epitheleal cells (isolated as described in Example3) were cultured, made quiescent, and then treated with IL-13 and IL-15 at appropriate concentration added to medium containing 2% cFBS. After specific time intervals the culture condition media were collected and assay for TNF-α receptor type I as previously described (Faber et al., Obstet Gynecol 98:668–673, 2001; Chegini et al., J Soc Gynecol Invest 6. 154–157, 1999) using ELISA and comparison to known concentrations of standard (R & D system).
# [8] = test system: TNFα receptor type I expression in epithelial cells; test: Effect of IL-13 and IL-15 on TNFα receptor type I expression in epithelial cells
# Description: as §2, §4
Molecule,"IL-13 expression, mRNA and protein level (summary statement) [1]",IL-13 expression compared to control cells [1],"IL-13 expression, mRNA and protein level (summary statement) [2]",IL-13 expression compared to control cells ([2]; 24 and 36 h),"IL-15 expression, mRNA and protein level (summary statement) [3]",IL-15 expression [3],"IL-15 expression, mRNA and protein level (summary statement) [4]",IL-15 expression [4],3H-thymidine incorporation compared to control cells [5],cell proliferation compared to control cells [5],3H-thymidine incorporation compared to control cells [6],cell proliferation compared to control cells [6],IL-13 expression compared to control cells ([2]; 6 h),TNFα receptor type I protein expression ([7]; 24 and 36 h),"TNFα receptor type I mRNA production ([8]; 2, 4 and 6 h)",TNFα receptor type I protein expression ([8]; 36 h),TNFα receptor type I mRNA expression compared to control cells ([7]; 6 h),TNFα receptor type I protein expression ([7]; 36 h)
"C[C@]12CC[C@@H]3c4ccc(O)cc4CC[C@H]3[C@@H]1CC[C@@H]2O [E2, 17 β estradiol]",modulate,statistically significant increase,modulate,statistically significant increase,modulate,statistically significant increase,modulate,statistically significant increase,modulated,modulated,modulated,modulated,,,,,,
"CC(=O)O[C@]1(C(C)=O)CC[C@H]2[C@@H]3C[C@H](C)C4=CC(=O)CC[C@]4(C)[C@H]3CC[C@@]21C [MPA, medroxyprogesterone acetate]",modulate,statistically significant increase,modulate,statistically significant increase,modulate,statistically significant increase,modulate,statistically significant increase,modulated,modulated,modulated,modulated,statistically significant increase,,,,,
IL-13: cytokine interleukin-13 added to stromal and epithelial cell cultures,,,,,,,,,,,,,,statistically significant increase,increased,statistically significant increase,,
IL-15: cytokine interleukin-15 added to stromal and epithelial cell cultures,,,,,,,,,,,,,,,,,marked increase,statistically significant increase
